Measurements published in patent US12643887B2, “Heterocyclic derivatives with cardiomyocyte proliferation activity for treatment of heart diseases” (Tongji University, priority 2019, dated 2026).
Like-named read-outs stand apart in the source and are kept apart here.

Target: T1, human CK2a2 (CSNK2a2) (Homo sapiens, UniProt P19784)
T1 construct: Recombinant human CK2a2 (CSNK2a2) (full length); GST (N); purchased SignalChem C71-10G; host or cells: Sf9 insect cells
Experiment: CK2a2 (CSNK2a2) enzyme assay (ADP-Glo)
Format: biochemical
Experimental: 8. CK2a2 (CSNK2a2) Enzyme Assay
The ability of compounds to inhibit human CK2a2 (CSNK2a2) kinase activities was determined using a commercially available ADP-Glo™ Kinase Assay kit (Promega, Cat #V9102) according to the manufacturer's protocol.
Recombinant human CK2a2 (CSNK2a2) (full length) (expressed in Sf9 insect cells with an N-terminal GST tag) was purchased from SignalChem (Cat #C71-10G). CK2 substrate (sequence: […]) was purchased from SignalChem (Cat #C08-58). This assay, run in a 384-well plate format, is a generic method for measuring kinase activities using an ADP-Glo Kinase Assay Kit. The basic assay procedure involves two steps: (1) Enzymatic step: inhibitors are incubated with the kinase and then ATP (included in the ADP-Glo Kinase Assay Kit) and the MBP protein are added to start the enzymatic reaction; (2) Detection step: after the kinase reaction, first ADP-Glo™ Reagent is added to terminate the kinase reaction and deplete the remaining ATP. Second, the Kinase Detection Reagent is added to simultaneously convert ADP to ATP and allow the newly synthesized ATP to be measured using a luciferase/luciferin reaction. The light generated is measured using a luminometer.
Briefly, CK2a2 (CSNK2a2) (7 nM) in the enzymatic buffer solutions (40 mM Tris, pH 7.5, 20 mM MgCl2, 0.1 mg/ml BSA, 50 μM DTT) were mixed with various concentrations of inhibitors (dissolved in 100% DMSO). These solutions were incubated for 30 minutes at 25° C., and subsequently a mixture of substrate peptide and ATP was added with the final peptide and ATP concentrations at 0.04 mg/ml and 15 μM, respectively. The final reaction mixture of enzyme-substrate-ATP-compound was incubated for 90 minutes at 25° C.
Afterwards ADP-Glo™ Reagent was added and the mixture was incubated at 25° C. for 60 minutes. Then Kinase Detection Reagent was added, and the final mixture was incubated at 25° C. for 60 minutes. The luminescence signal of the final solution was measured on an Envision instrument (PerkinElmer). The percent (%) inhibition at each concentration of a compound is calculated relative to the luminescence signal in the Max and Min control wells contained within each assay plate. […] The concentrations and percent inhibition values for a test compound are plotted and the concentration of the compound required to achieve 50% inhibition (IC50) is determined with a four-parameter logistic dose response equation.

[1] = ADP-Glo, ATP 15 μM, read-out: CK2 alpha 2 IC50

T1 sequence (P19784 whole entry): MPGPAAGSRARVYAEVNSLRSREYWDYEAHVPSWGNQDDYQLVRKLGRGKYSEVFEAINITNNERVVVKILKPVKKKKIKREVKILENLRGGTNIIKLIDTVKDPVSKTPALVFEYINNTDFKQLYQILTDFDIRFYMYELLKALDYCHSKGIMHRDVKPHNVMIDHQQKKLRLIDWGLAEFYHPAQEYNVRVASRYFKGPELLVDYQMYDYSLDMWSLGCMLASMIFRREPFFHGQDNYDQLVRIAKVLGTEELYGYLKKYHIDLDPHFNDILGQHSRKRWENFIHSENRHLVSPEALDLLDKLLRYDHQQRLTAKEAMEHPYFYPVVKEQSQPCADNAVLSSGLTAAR

| SMILES | IC50 [1] | IC50 |
| --- | --- | --- |
| Nc1ccc(NC2=N/C(=C\c3ccc4ncsc4c3)C(=O)N2)cc1 [Example 98, (Z)-2-((4-aminophenyl)amino)-5-(benzo[d]thiazol-6-ylmethylene)-3,5-dihydro-4H-imidazol-4-one] | < 100 nM | – |
| CCN(C1=N/C(=C\c2ccc3c(c2)OCO3)C(=O)N1)c1ccccc1 [Example 4, (Z)-5-(benzo[d][1,3]dioxol-5-ylmethylene)-2-(ethyl(phenyl)amino)-3,5-dihydro-4H-imidazol-4-one] | 100 to 1000 nM | – |
| CC(=O)N(C1=N/C(=C\c2ccc3c(c2)OCO3)C(=O)N1)c1ccccc1 [Example 5, (Z)—N-(4-(benzo[d][1,3]dioxol-5-ylmethylene)-5-oxo-4,5-dihydro-1H-imidazol-2-yl)-N-phenylacetamide] | – | < 100 nM |
| Cc1nc2ccc(NC3=N/C(=C\c4ccc5ncsc5c4)C(=O)N3)cc2s1 [Example 90, (Z)-5-(benzo[d]thiazol-6-ylmethylene)-2-((2-methylbenzo[d]thiazol-6-yl)amino)-3,5-dihydro-4H-imidazol-4-one] | < 100 nM | – |
